Consider four molecules from ChEMBL document CHEMBL4420076, “Amylin and calcitonin receptor agonist” (2017).

Numbered stars: 1 amine (or outer) side, 2 acyl side, 3 side chain; on linkers, the order of the positions; unused ones are H or OH. Peptide text beside a SMILES is read from it. * marks the point of attachment. C20 diacid = O=C(O)CCCCCCCCCCCCCCCCCCC(=O)*; C18 diacid = O=C(O)CCCCCCCCCCCCCCCCC(=O)*; γGlu = O=C(O)[C@H](CCC(=O)[*:2])N[*:1] Where only a bound is given, the exact number is not on record here.

Series [1] can be described thus: Solubility in 100 mM bistrispropane buffer at pH 7.0 incubated for 18 hrs by UPLC analysis. Type of series: physicochemical.
Series [2] has as its target T1, Amylin receptor AMY3; CALCR/RAMP3 (Homo sapiens, UniProt O60896+P30988).
T1 sequence (P30988 whole entry): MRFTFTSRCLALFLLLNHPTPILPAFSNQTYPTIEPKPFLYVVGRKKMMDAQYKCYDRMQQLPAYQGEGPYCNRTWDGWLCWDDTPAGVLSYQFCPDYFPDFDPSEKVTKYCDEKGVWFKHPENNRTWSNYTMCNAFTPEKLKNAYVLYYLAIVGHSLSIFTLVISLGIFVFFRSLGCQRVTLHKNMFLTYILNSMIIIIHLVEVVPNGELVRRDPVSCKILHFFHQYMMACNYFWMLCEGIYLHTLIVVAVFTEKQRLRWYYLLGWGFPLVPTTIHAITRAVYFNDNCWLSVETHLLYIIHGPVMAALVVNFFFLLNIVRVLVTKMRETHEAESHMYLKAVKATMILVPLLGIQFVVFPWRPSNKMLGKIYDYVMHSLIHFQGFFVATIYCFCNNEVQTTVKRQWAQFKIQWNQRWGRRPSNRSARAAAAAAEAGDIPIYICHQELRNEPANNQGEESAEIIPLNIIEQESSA
T1 sequence (O60896 whole entry): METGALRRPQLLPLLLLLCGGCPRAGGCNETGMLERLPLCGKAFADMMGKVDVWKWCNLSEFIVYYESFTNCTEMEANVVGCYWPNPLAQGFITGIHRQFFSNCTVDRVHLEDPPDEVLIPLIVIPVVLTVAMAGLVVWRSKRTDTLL
Briefly: Displacement of [125I]-labeled rat amylin from human amylin receptor expressed in BHK tkts13 whole cells co-expressing RAMP3 incubated for 60 mins by scintillation proximity assay. Type of series: cell-based. (In general: Loss of bound radioactivity is the signal in a displacement assay; it reports binding, not function.)

Series [3] is described as follows: Solubility in 100 mM bistrispropane buffer at pH 7.5 incubated for 18 hrs by UPLC analysis. The format is physicochemical.
The target in series [4] is T1, Amylin receptor AMY3; CALCR/RAMP3. The series is described as follows: Agonist activity at human amylin receptor expressed in BHK570 cells co-expressing RAMP3 assessed as increase in intracellular cAMP concentration incubated for 3 hrs in absence of albumin by CRE luciferase reporter gene assay. The format is functional, cell-based.
Series [5] in a line: Solubility in 100 mM bistrispropane buffer at pH 6.5 incubated for 18 hrs by UPLC analysis. The format is physicochemical.
Series [6] can be described thus: Solubility in 100 mM glycylglycine buffer at pH 4.0 incubated for 18 hrs by UPLC analysis. Type of series: physicochemical.
The subject of series [7] is Rattus norvegicus. Briefly: Reduction in food intake in Sprague-Dawley rat at 3 nmol/kg measured 24 to 48 hrs post dose relative to control. Type of series: functional. Details: scale not given: the % may be the effect or the level left.
Series [8] can be described thus: Solubility in 100 mM glycylglycine buffer at pH 3.0 incubated for 18 hrs by UPLC analysis. Type of series: physicochemical.
The test system of series [9] is Rattus norvegicus. Briefly: Reduction in food intake in Sprague-Dawley rat at 3 nmol/kg measured 0 to 24 hrs post dose relative to control. Details: scale not given: the % may be the effect or the level left. The format is functional.
Series [10] can be described thus: Solubility in 100 mM bistrispropane buffer at pH 8.0 incubated for 18 hrs by UPLC analysis. The format is physicochemical.
Series [11] can be described thus: Solubility in 100 mM bistrispropane buffer at pH 6.0 incubated for 18 hrs by UPLC analysis. The format is physicochemical.
Series [12] deals with T2, Calcitonin receptor (Homo sapiens, UniProt P30988).
T2 sequence (P30988 whole entry): T1 sequence (P30988 whole entry)
The series is described as follows: Agonist activity at human calcitonin receptor expressed in BHK570 cells assessed as increase in intracellular cAMP concentration incubated for 3 hrs in absence of albumin by CRE luciferase reporter gene assay. Type of series: functional, cell-based. In general terms: A reporter such as luciferase makes a cellular process visible.

The nature of series [13]: Solubility in 100 mM glycylglycine buffer at pH 5.0 incubated for 18 hrs by UPLC analysis. The format is physicochemical.
The target in series [14] is T2, Calcitonin receptor. The series is described as follows: Agonist activity at human calcitonin receptor expressed in BHK570 cells assessed as increase in intracellular cAMP concentration incubated for 3 hrs in presence of 10% FBS by CRE luciferase reporter gene assay. The format is functional, cell-based.
For series [15], the target named is T1, Amylin receptor AMY3; CALCR/RAMP3. The series is described as follows: Agonist activity at human amylin receptor expressed in BHK570 cells co-expressing RAMP3 assessed as increase in intracellular cAMP concentration incubated for 3 hrs in presence of 10% FBS by CRE luciferase reporter gene assay. Type of series: functional, cell-based.

The solubility is the dissolved amount per volume that the medium holds. The IC50 is the point on the concentration scale where inhibition reaches its midpoint. As usually defined, the EC50 is the concentration needed to bring the measured effect to its halfway point. Regarding `CC(C)C[C@H](NC(=O)[C@H](CCC(=O)O)NC(=O)[C@H](Cc1cnc[nH]1)NC(=O)[C@H](CC(C)C)NC(=O)[C@H](CCC(=O)O)NC(=O)[C@H](C)NC(=O)[C@H](CO)NC(=O)[C@H](CC(C)C)NC(=O)[C@H](CCCNC(=N)N)NC(=O)CNC(=O)[C@H](CC(C)C)NC(=O)[C@@H](NC(=O)[C@H](C)NC(=O)[C@@H](NC(=O)[C@H](CO)NC(=O)[C@H](CC(C)C)NC(=O)[C@H](CCC(=O)O)NC(=O)[C@H](CO)NC(=O)[C@H](C)NC(=O)[C@H](CCC(=O)O)NC(=O)CCCCCCCCCCCCCCCCC(=O)O)[C@@H](C)O)C(C)C)C(=O)N[C@@H](C)C(=O)N[C@H](C(=O)N[C@@H](CC(C)C)C(=O)N1CCC[C@H]1C(=O)N[C@@H](CCCNC(=N)N)C(=O)N[C@H](C(=O)N[C@@H](CCC(=O)O)C(=O)N[C@H](C(=O)NCC(=O)N1CCC[C@H]1C(=O)N[C@@H](CCC(=O)O)C(=O)N[C@@H](CO)C(=O)N1CCC[C@H]1C(N)=O)[C@@H](C)O)[C@@H](C)O)[C@@H](C)O` ({C18 diacid}-EASELSTAVLGRLSAELHELATLPRTETGPESP-NH2), the solubility at 18 h in series [1], in [3], in [5], in series [6], in [8] and in series [10] was no less than 200 µM each time. Also, the solubility at 18 h in series [11] and in series [13] was no less than 200 µM in each case. Further, the 50% inhibitory concentration (IC50) in series [2] was 0.796 nM. The concentration for a half-maximal effect (EC50) in series [4] was 0.012 nM; at Calcitonin receptor [12] it was 0.009 nM. The Activity in the series with Rattus norvegicus [7] is 39%; in the series with Rattus norvegicus [9] it was 58.5%.
In the case of `CC(C)C[C@H](NC(=O)[C@H](CCC(=O)O)NC(=O)[C@H](Cc1cnc[nH]1)NC(=O)[C@H](CC(C)C)NC(=O)[C@H](CCC(=O)O)NC(=O)[C@H](C)NC(=O)[C@H](CO)NC(=O)[C@H](CC(C)C)NC(=O)[C@H](CCCNC(=N)N)NC(=O)CNC(=O)[C@H](CC(C)C)NC(=O)[C@@H](NC(=O)[C@H](C)NC(=O)[C@@H](NC(=O)[C@H](CO)NC(=O)[C@H](CC(C)C)NC(=O)[C@H](CCC(=O)O)NC(=O)[C@H](CO)NC(=O)[C@@H]1CCCN1C(=O)[C@H](CCC(=O)O)NC(=O)CCCCCCCCCCCCCCCCC(=O)O)[C@@H](C)O)C(C)C)C(=O)N[C@@H](C)C(=O)N[C@H](C(=O)N[C@@H](CC(C)C)C(=O)N1CCC[C@H]1C(=O)N[C@@H](CCCNC(=N)N)C(=O)N[C@H](C(=O)N[C@@H](CCC(=O)O)C(=O)N[C@H](C(=O)NCC(=O)N1CCC[C@H]1C(=O)N[C@@H](CCC(=O)O)C(=O)N[C@@H](CO)C(=O)N1CCC[C@H]1C(N)=O)[C@@H](C)O)[C@@H](C)O)[C@@H](C)O` ({C18 diacid}-EPSELSTAVLGRLSAELHELATLPRTETGPESP-NH2), the solubility at 18 h in [1], in series [3], in series [5], in series [6], in series [8] and in series [10] was no less than 200 µM in each case. The solubility at 18 h in series [11] and in series [13] was no less than 200 µM in each case. The IC50 in series [2] was 0.375 nM. In addition, the concentration giving a half-maximal response (EC50) in series [4] is 0.008 nM; on Calcitonin receptor [12], 0.007 nM. Besides, the Activity in the series on Rattus norvegicus [7] is recorded as 77%; with Rattus norvegicus [9] it was 84%.
For the molecule `CC(C)C[C@H](NC(=O)CNC(=O)[C@H](CO)NC(=O)[C@H](C)NC(=O)CC[C@H](NC(=O)CCCCCCCCCCCCCCCCCCC(=O)O)C(=O)O)C(=O)N[C@@H](CO)C(=O)N[C@H](C(=O)N[C@@H](C)C(=O)N[C@@H](C)C(=O)N[C@@H](CC(C)C)C(=O)NCC(=O)N[C@@H](CCCNC(=N)N)C(=O)N[C@@H](CC(C)C)C(=O)N[C@@H](CO)C(=O)N[C@@H](CCC(=O)O)C(=O)N[C@@H](CCC(=O)O)C(=O)N[C@@H](CC(C)C)C(=O)N[C@@H](Cc1cnc[nH]1)C(=O)N[C@@H](CCC(=O)O)C(=O)N[C@@H](CC(C)C)C(=O)N[C@@H](CCC(N)=O)C(=O)N[C@H](C(=O)N[C@@H](Cc1ccc(O)cc1)C(=O)N1CCC[C@H]1C(=O)N[C@@H](CCCNC(=N)N)C(=O)N[C@H](C(=O)N[C@@H](CCC(=O)O)C(=O)N[C@H](C(=O)NCC(=O)N[C@@H](CO)C(=O)NCC(=O)N[C@H](C(=O)N[C@@H](Cc1ccc(O)cc1)C(N)=O)[C@@H](C)O)[C@@H](C)O)[C@@H](C)O)[C@@H](C)O)[C@@H](C)O` ({C20 diacid-γGlu}-ASGLSTAALGRLSEELHELQTYPRTETGSGTY-NH2), the solubility at 18 h in series [1], in series [3], in [5], in series [8], in [10] and in series [11] was no less than 200 µM throughout. Moreover, the EC50 in [4] is 0.036 nM; on Calcitonin receptor [14], 0.057 nM; in series [15], 0.159 nM; at Calcitonin receptor [12] it was 0.021 nM. In addition, the Activity with Rattus norvegicus [7] is recorded as 6%; in the series on Rattus norvegicus [9] it was 21%.
Consider `CC(C)C[C@H](NC(=O)CNC(=O)[C@H](CO)NC(=O)[C@H](CC(C)C)NC(=O)[C@H](CCC(=O)O)NC(=O)CC[C@H](NC(=O)CCCCCCCCCCCCCCCCCCC(=O)O)C(=O)O)C(=O)N[C@@H](CO)C(=O)N[C@H](C(=O)N[C@@H](CC(C)C)C(=O)N[C@H](C(=O)N[C@@H](CC(C)C)C(=O)NCC(=O)N[C@@H](CCCNC(=N)N)C(=O)N[C@@H](CC(C)C)C(=O)N[C@@H](CO)C(=O)N[C@@H](CCC(N)=O)C(=O)N[C@@H](CCC(=O)O)C(=O)N[C@@H](CC(C)C)C(=O)N[C@@H](Cc1cnc[nH]1)C(=O)N[C@@H](CCC(=O)O)C(=O)N[C@@H](CC(C)C)C(=O)N[C@@H](CCC(N)=O)C(=O)N[C@H](C(=O)N[C@@H](Cc1ccc(O)cc1)C(=O)N1CCC[C@H]1C(=O)N[C@@H](CCCNC(=N)N)C(=O)N[C@H](C(=O)NCC(=O)N[C@H](C(=O)NCC(=O)N[C@@H](CO)C(=O)NCC(=O)N[C@H](C(=O)N[C@@H](Cc1ccc(O)cc1)C(N)=O)[C@@H](C)O)[C@@H](C)O)[C@@H](C)O)[C@@H](C)O)C(C)C)[C@@H](C)O` ({C20 diacid-γGlu}-ELSGLSTLVLGRLSQELHELQTYPRTGTGSGTY-NH2), for which the IC50 in [2] is 2.56 nM. Further, the EC50 in series [4] was 0.025 nM; in series [15], 0.565 nM. Further, the solubility at 18 h in series [6] and in series [8] was no less than 200 µM throughout. In addition, the Activity was 0% in the series on Rattus norvegicus [7] and 32% in the series on Rattus norvegicus [9].
